Measurements: the supplement of paper PMC10307832

Experiments:
Test in all cases: relative viability (nuclei count vs DMSO), 5 days (fraction); higher = more cells survive
[1] = compound: C1COCCN1CC2=CC(=O)C(=CO2)OCCCCCSC3=C4C=CC(=CC4=NC=C3)C(F)(F)F [EHT 1864] + COc1cccc2cc(-c3nc([C@H]4CC[C@H](C(=O)O)CC4)n4ncnc(N)c34)[nH]c12 [OSI-027] (partner 0.5 µM)
Procedure, shortened: (§1)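 The day after seeding in 1536-well plates, lung cancer cell lines were treated by pin tool with a single drug, or with a fixed anchor-drug dose together with five library-drug doses (not always all listed) in √10 steps. After 5 days, a combined fix-and-stain solution (final 0.05% Triton X-100, 1% formaldehyde, 1 ug/ml Hoechst) was added. Nuclei counted on 4× images gave relative viability as treated counts over vehicle counts, reported as the median of duplicate plates.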

[2] = compound: C1COCCN1CC2=CC(=O)C(=CO2)OCCCCCSC3=C4C=CC(=CC4=NC=C3)C(F)(F)F [EHT 1864] + CS(=O)(=O)CCNCc1ccc(-c2ccc3ncnc(Nc4ccc(OCc5cccc(F)c5)c(Cl)c4)c3c2)o1 [Lapatinib] (partner 2 µM)
Procedure, shortened: as §1

[3] = compound: C1COCCN1CC2=CC(=O)C(=CO2)OCCCCCSC3=C4C=CC(=CC4=NC=C3)C(F)(F)F [EHT 1864] + C[C@]1(O)C[C@@H](c2nc(-c3ccc4ccc(-c5ccccc5)nc4c3)c3c(N)nccn32)C1 [Linsitinib] (partner 1 µM)
Procedure, shortened: as §1

[4] = compound: C1COCCN1CC2=CC(=O)C(=CO2)OCCCCCSC3=C4C=CC(=CC4=NC=C3)C(F)(F)F [EHT 1864] + Cc1nc(NC(=O)N2CCC[C@H]2C(N)=O)sc1-c1ccnc(C(C)(C)C(F)(F)F)c1 [Alpelisib] (partner 2 µM)
Procedure, shortened: as §1

Cell Line | relative viability ([1]; first compound 0.04 µM) | relative viability ([1]; first compound 0.1265 µM) | relative viability ([1]; first compound 0.4 µM) | relative viability ([1]; first compound 1.265 µM) | relative viability ([1]; first compound 4 µM) | relative viability ([2]; first compound 0.04 µM) | relative viability ([2]; first compound 0.1265 µM) | relative viability ([2]; first compound 0.4 µM) | relative viability ([2]; first compound 1.265 µM) | relative viability ([2]; first compound 4 µM) | relative viability ([3]; first compound 0.04 µM) | relative viability ([3]; first compound 0.1265 µM) | relative viability ([3]; first compound 0.4 µM) | relative viability ([3]; first compound 1.265 µM) | relative viability ([3]; first compound 4 µM) | relative viability ([4]; first compound 0.04 µM) | relative viability ([4]; first compound 0.1265 µM) | relative viability ([4]; first compound 0.4 µM) | relative viability ([4]; first compound 1.265 µM) | relative viability ([4]; first compound 4 µM)
NCI-H2009 | 0.594 | 0.521 | 0.677 | 0.62 | 0.511 | 0.77 | 0.749 | 0.921 | 0.963 | 0.824 | 1.15 | 1.2 | 1.17 | 1.24 | 0.897 | 1.16 | 1.13 | 1.11 | 1.12 | 0.971
NCI-H2023 | 0.373 | 0.314 | 0.375 | 0.313 | 0.369 | 0.813 | 0.558 | 0.727 | 0.919 | 0.84 | 0.586 | 0.717 | 0.612 | 0.656 | 0.602 | 0.513 | 0.597 | 0.564 | 0.694 | 0.546
NCI-H2085 | 0.719 |  | 0.772 | 0.719 | 0.812 | 0.809 | 0.678 | 0.807 | 0.716 | 0.744 | 0.87 | 0.816 | 0.883 | 0.91 | 0.787 | 0.998 | 0.875 | 0.9 | 0.982 | 0.869
NCI-H2087 | 0.496 |  | 0.578 | 0.496 | 0.586 | 1.03 | 0.485 | 1.01 | 0.614 | 0.789 | 0.88 | 0.865 | 0.796 | 0.729 | 0.68 | 0.929 | 1 | 0.902 | 1.1 | 0.802
